Read-outs that look alike come from different tables or passages of the source.
What was measured:
MDR1 = assay: MDCK-MDR1 permeability assay (BBB penetration potential); type: in vitro ADME; conditions: dog; for Papp A→B at 120 min, 5 μM / Papp B→A at 120 min, 5 μM: MDCK-MDR1, pH 7.4
Procedure: (§1) Each determination is performed in duplicate. […] Analytical conditions are outlined below.
(§2) Papp=(dCr/dt)×Vr/(A×CA) (1)

[1] = test system: MDR1-MDCK cell monolayers; assay: as above; type: in vitro ADME; conditions: 5 μM, 120 minutes; for MDCK MDRP1 Efflux Ratio: Papp (B-to-A)/Papp (A-to-B), separated enantiomers, told apart by chiral retention time; for MDCK-MDR1: % Recov A-B / MDCK-MDR1: % Recov B-A: pH 7.4
Procedure: as §1, §2

[2] = MDCK-MDR1, pH 7.4, Papp (B-to-A)/Papp (A-to-B), 5 μM, 120 minutes, separated enantiomers, told apart by chiral retention time, read-out: MDCK MDRP1 Efflux Ratio
[3] = MDCK-MDR1, pH 7.4, Papp (B-to-A)/Papp (A-to-B), read-out: MDCK-MDR1: Efflux

SMILES	efflux ratio at 120 min, 5 μM (MDR1; [2])	MDCK MDRP1 Efflux Ratio [1]	efflux ratio at 120 min, 5 μM (MDR1; [3])	Papp A→B at 120 min, 5 μM (MDR1; 5 μM, 120 minutes) [×10⁻⁶ cm/s]	Papp B→A at 120 min, 5 μM (MDR1; 5 μM, 120 minutes) [×10⁻⁶ cm/s]	MDCK-MDR1: % Recov A-B [1] [%]	MDCK-MDR1: % Recov B-A [1] [%]
CN(c1nnc(-c2ccc(-c3cc(=O)n(C)cn3)cc2O)s1)[C@@H]1C[C@H]2CC[C@H](N2)[C@@H]1F (racemic) [8A/8B, 6-[4-(5-{[(1S,2S,3R)-2-fluoro-8-azabicyclo[3.2.1]octan-3-yl](methyl)amino}-1,3,4-thiadiazol-2-yl)-3-hydroxyphenyl]-3-methyl-3,4-dihydropyrimidin-4-one and 6-[4-(5-{[(2R,3S,5S)-2-fluoro-8-azabicyclo[3.2.1]octan-3-yl](methyl)amino}-1,3,4-thiadiazol-2-yl)-3-hydroxyphenyl]-3-methyl-3,4-dihydropyrimidin-4-one]	21	31	–	–	–	–	–
CN(c1nnc(-c2cc(F)c(-c3cnn(C)c3)cc2O)s1)[C@H]1C[C@@H]2CC[C@@H](N2)[C@H]1F (racemic) [9A/9B, 4-fluoro-2-(5-{[(1S,2S,3R,5R)-2-fluoro-8-azabicyclo[3.2.1]octan-3-yl](methyl)amino}-1,3,4-thiadiazol-2-yl)-5-(1-methyl-1H-pyrazol-4-yl)phenol and 4-fluoro-2-(5-{[(1R,2R,3S,5S)-2-fluoro-8-azabicyclo[3.2.1]octan-3-yl](methyl)amino}-1,3,4-thiadiazol-2-yl)-5-(1-methyl-1H-pyrazol-4-yl)phenol]	5	6	–	–	–	–	–
CN(c1nnc(-c2ccc(-c3ccn(CF)c(=O)c3)cc2O)s1)[C@@H]1C[C@H]2CC[C@H](N2)[C@@H]1F (racemic) [15A/15B, 4-[4-(5-{[(1S,2S,3R)-2-fluoro-8-azabicyclo[3.2.1]octan-3-yl](methyl)amino}-1,3,4-thiadiazol-2-yl)-3-hydroxyphenyl]-1-(fluoromethyl)-1,2-dihydropyridin-2-one and 4-[4-(5-{[(2R,3S,5S)-2-fluoro-8-azabicyclo[3.2.1]octan-3-yl](methyl)amino}-1,3,4-thiadiazol-2-yl)-3-hydroxyphenyl]-1-(fluoromethyl)-1,2-dihydropyridin-2-one]	40	66	–	–	–	–	–
CN(c1nnc(-c2ccc(-c3cnn(C)c3)cc2O)s1)[C@H]1C[C@@H]2CC[C@H]([C@H]1F)N2C (racemic) [21A/21B, 2-(5-{[(1S,2S,3R,5R)-2-fluoro-8-methyl-8-azabicyclo[3.2.1]octan-3-yl](methyl)amino}-1,3,4-thiadiazol-2-yl)-5-(1-methyl-1H-pyrazol-4-yl)phenol and 2-(5-{[(1R,2R,3S,5S)-2-fluoro-8-methyl-8-azabicyclo[3.2.1]octan-3-yl](methyl)amino}-1,3,4-thiadiazol-2-yl)-5-(1-methyl-1H-pyrazol-4-yl)phenol]	3	4	–	–	–	–	–
CN(c1nnc(-c2ccc(-c3cn[nH]c3)cc2O)s1)[C@H]1C[C@@H]2CC[C@H]([C@H]1F)N2C (racemic) [23A/23B, 2-(5-{[(1S,2S,3R,5R)-2-fluoro-8-methyl-8-azabicyclo[3.2.1]octan-3-yl](methyl)amino}-1,3,4-thiadiazol-2-yl)-5-(1H-pyrazol-4-yl)phenol and 2-(5-{[(1R,2R,3S,5S)-2-fluoro-8-methyl-8-azabicyclo[3.2.1]octan-3-yl](methyl)amino}-1,3,4-thiadiazol-2-yl)-5-(1H-pyrazol-4-yl)phenol]	7	9	–	–	–	–	–
CN(c1nnc(-c2cc(F)c(-c3cn[nH]c3)cc2O)s1)[C@H]1C[C@@H]2CC[C@H]([C@H]1F)N2C (racemic) [24A/24B, 4-fluoro-2-(5-{[(1S,2S,3R,5R)-2-fluoro-8-methyl-8-azabicyclo[3.2.1]octan-3-yl](methyl)amino}-1,3,4-thiadiazol-2-yl)-5-(1H-pyrazol-4-yl)phenol and 4-fluoro-2-(5-{[(1R,2R,3S,5S)-2-fluoro-8-methyl-8-azabicyclo[3.2.1]octan-3-yl](methyl)amino}-1,3,4-thiadiazol-2-yl)-5-(1H-pyrazol-4-yl)phenol]	6	7	–	–	–	–	–
CN(c1nnc(-c2ccc(-c3ccn(C)c(=O)c3)cc2O)s1)[C@@H]1C[C@H]2CC[C@H](N2)[C@@H]1F (single isomer, unassigned) [Compound E-4A]	–	–	54	1.03	55.9	93	101
CN(c1nnc(-c2ccc(-c3ccn(C)c(=O)c3)cc2O)s1)[C@H]1C[C@@H]2CC[C@@H](N2)[C@H]1F (single isomer, unassigned) [Compound E-4B]	–	–	40	1.81	71.4	115	125
COc1cc(-c2ccc(-c3nnc(N(C)[C@H]4C[C@@H]5CC[C@@H](N5)[C@H]4F)s3)c(O)c2)ncn1 (single isomer, unassigned) [Compound E-5B]	–	–	2	6.59	9.86	37	58
CN(c1nnc(-c2cc(F)c(-c3cn[nH]c3)cc2O)s1)[C@@H]1C[C@H]2CC[C@H](N2)[C@@H]1F (single isomer, unassigned) [Compound E-6A]	–	–	15	2.33	35.2	59	80
CN(c1nnc(-c2ccc(-c3cn[nH]c3)cc2O)s1)[C@H]1C[C@@H]2CC[C@@H](N2)[C@H]1F (single isomer, unassigned) [Compound E-7A]	–	–	12	5.22	60.6	99	102
CN(c1nnc(-c2ccc(-c3cc(=O)n(C)cn3)cc2O)s1)[C@@H]1C[C@H]2CC[C@H](N2)[C@@H]1F (single isomer, unassigned) [Compound E-8A]	–	–	21	1.31	27.8	116	114
CN(c1nnc(-c2ccc(-c3cc(=O)n(C)cn3)cc2O)s1)[C@H]1C[C@@H]2CC[C@@H](N2)[C@H]1F (single isomer, unassigned) [Compound E-8B]	–	–	31	0.66	20.6	67	42
CN(c1nnc(-c2ccc(-c3cnn(CF)c3)cc2O)s1)[C@H]1C[C@@H]2CC[C@@H](N2)[C@H]1F (single isomer, unassigned) [Compound E-10A]	–	–	6	8.6	50.8	72	80
COc1cc(-c2ccc(-c3nnc(N(C)[C@@H]4C[C@H]5CC[C@H](N5)[C@@H]4F)s3)c(O)c2)ccn1 (single isomer, unassigned) [Compound E-11A]	–	–	2	4.19	9.76	20	56
COc1cc(-c2ccc(-c3nnc(N(C)[C@H]4C[C@@H]5CC[C@@H](N5)[C@H]4F)s3)c(O)c2)ccn1 (single isomer, unassigned) [Compound E-11B]	–	–	2	3.71	6.07	17	60

From patent US20230069804A1, “METHODS AND COMPOSITIONS FOR MODULATING SPLICING” (SkyHawk Therapeutics, Inc., priority 2019, published 2023)
